# Patent US11000505B2 (priority 2010, dated 2021)
# Values joined by “and” are separate entries in the source; they are usually repeats but may differ in a detail not shown here. Identical values can stand only once.
# Experiments:
# [1] = tested on: pial artery; settings: pig, in vivo
# [2] = target: T1, cloned rat kappa receptor (Rattus norvegicus, UniProt P34975); test: biochemical; type: binding
# T1 construct: expressed in transfected cells; host or cells: HEK cells (NIMH PDSP)
# [3] = tested on: mu, kappa and delta receptors; settings: competition binding assays; cited from earlier work
# [4] = tested on: pial artery; settings: pig, in vivo; remark: listed apart in the source
# [5] = target: T2, cloned human mu receptor (Homo sapiens, UniProt P35372); test: In-vitro affinity determination, [3H]DAMGO competition; type: binding
# T2 construct: expressed in transfected cells; host or cells: HEK cells (NIMH PDSP)
# T2 sequence (P35372 whole entry): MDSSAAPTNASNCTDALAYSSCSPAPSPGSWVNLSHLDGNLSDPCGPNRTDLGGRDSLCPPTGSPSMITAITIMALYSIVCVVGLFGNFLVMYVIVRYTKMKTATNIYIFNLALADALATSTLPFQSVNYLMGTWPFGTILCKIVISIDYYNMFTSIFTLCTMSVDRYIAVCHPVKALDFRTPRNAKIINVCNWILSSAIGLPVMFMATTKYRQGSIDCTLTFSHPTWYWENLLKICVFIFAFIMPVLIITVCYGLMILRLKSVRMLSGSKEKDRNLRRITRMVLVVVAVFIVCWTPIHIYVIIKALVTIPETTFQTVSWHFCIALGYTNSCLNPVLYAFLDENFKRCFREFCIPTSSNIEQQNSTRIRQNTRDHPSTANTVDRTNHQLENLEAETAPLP
# [6] = tested on: cAMP; test: cAMP in CSF by ELISA (Example 7); type: in vivo, newborn pigs
# Description: Newborn pigs (aged up to 6 days, 1.1-2.0 kg) of both genders were used for this study. Protocols were approved by the Institutional Animal Care and Use Committee of the University of Pennsylvania (Philadelphia). The newborn piglet model was used because its brain is gyrencepahalic and contains more white matter than grey matter, which is similar to that of humans. Furthermore, the head is large enough for the insertion of a cranial window and vascular visualization. Animals were induced with isoflurane (1-2 minimum alveolar concentration) and maintained with α-chloralose (80-100 mg/kg supplemented with 5 mg/kg·h, IV). Both femoral arteries were catheterized to monitor blood pressure and blood gas to maintain a constant carbon dioxide and pH. A catheter was inserted into the right femoral vein for medication administration. Animals were ventilated with room air after tracheal intubation. A heating pad was used to maintain the rectal temperature of animals at 37-39° C. A closed cranial window on the top of the head of the piglet was placed for direct pial artery visualization and diameter measurement. The closed cranial window consisted of three parts: a stainless steel ring, a circular glass cover slip, and three ports consisting of 17-gauge hypodermic needles attached to three precut holes in the stainless steel ring. CSF was collected through a cranial window port for cAMP measurement in some animals. […] Vascular diameter was measured from a video monitor that was connected to the camera with a video microscaler (VPA 550; For-A-Corp., Los Angeles, Calif.) by the investigator who administered the medication.
# The cerebral cortical periarachnoid CSF samples were collected before and 10 min afterward administration of herkinorin and NTP to measure the cAMP level. […] Commercially available ELISA kits (Assay Designs, Ann Arbor, Mich.) were used to quantify cAMP concentrations.
# [7] = tested on: pial artery; type: in vivo, piglets; settings: in vivo
# [8] = tested on: pial artery; type: in vivo, newborn pigs; settings: pig, in vivo
# T1 sequence (P34975 whole entry): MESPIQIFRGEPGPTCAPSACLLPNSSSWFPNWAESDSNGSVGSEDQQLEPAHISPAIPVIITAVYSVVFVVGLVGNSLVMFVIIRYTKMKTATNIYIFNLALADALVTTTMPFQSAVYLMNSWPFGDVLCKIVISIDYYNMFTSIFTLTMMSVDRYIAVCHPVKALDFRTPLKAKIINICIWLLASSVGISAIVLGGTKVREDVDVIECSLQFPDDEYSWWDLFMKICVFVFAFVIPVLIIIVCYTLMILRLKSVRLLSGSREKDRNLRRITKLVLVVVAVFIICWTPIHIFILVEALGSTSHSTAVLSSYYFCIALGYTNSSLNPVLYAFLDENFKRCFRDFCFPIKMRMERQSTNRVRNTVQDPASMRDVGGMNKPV
compound,measurement,setting,value
"O=c1[nH]c2cc(C(F)(F)F)ccc2n1-c1cc(C(F)(F)F)ccc1O [NS1619, reference compound]",dilation response in presence of iberiotoxin,[1],blocked the dilation effects of NS1619
"CC1(C)Oc2ccc(C#N)cc2C(N2CCCC2=O)C1O (stereo not drawn) [cromakalim, reference compound]",dilation response in presence of glibenclamide,[1],blocked the dilation in response to cromakalim
COC(=O)[C@@H]1C[C@H](OC(=O)c2ccccc2)C(=O)[C@H]2[C@@]1(C)CC[C@H]1C(=O)O[C@H](c3ccoc3)C[C@]21C [herkinorin],Ki,[2],0.184 µM
same,selectivity for mu over delta receptors,[3],approximately 98 fold
same,selectivity for mu over kappa receptors,[3],approximately 8 fold
same,concentration required to effectively dilate pial arteries,[4],0.1 nM
same,dilation in presence of NTP,[4],totally abolished by norbinaltorphimine
same,dilation in presence of Rp-cAMPS,[4],blunted herkinorin-mediated pial artery dilation
same,dilation in presence of β-FNA,[4],not affected by β-FNA
same,pial artery diameter dilation,[4],10.6% and 17.8%
same,systemic blood pressure,[4],without significant systemic blood pressure variation
same,Ki,[5]; HEK cells over-expressing receptor,0.045 µM
same,binding affinity to mu receptor relative to kappa receptor,[5]; mu stronger than kappa,approximately 4 fold
same,cAMP levels in the CSF,[6]; 10 min after administration,significantly increased cAMP levels in the CSF
same,elevated cAMP levels with NTP,"[6]; pig, in vivo",blocked by NTP
same,elevated cAMP levels with β-FNA,"[6]; pig, in vivo",not affected after β-FNA administration
"CC(C)NCC(O)c1ccc(O)c(O)c1 (stereo not drawn) [isoproterenol, reference compound]",dilation response in presence of naloxone,[1],unaffected
same,dilation response in presence of norbinaltorphimine,[1],unaffected
same,dilation in presence of NTP,[4],unchanged by either NTP or β-FNA
same,dilation in presence of β-FNA,[4],unchanged by either NTP or β-FNA
same,pial artery response to the agent before and after hypoxia/ischemia,[7],unchanged in all groups
same,pial artery response to the agent before and after HI,[8],no change was observed
methionine enkephalin [reference compound],dilation response in presence of naloxone,[1],blocked the dilation effects
same,dilation response in presence of norbinaltorphimine,[1],blocked the dilation effects
